The text below walks through data of a melting point compilation (Tetko et al.; mined from patent text by program, amines drawn as free bases though some values may be those of a salt).

Some results are limits rather than exact numbers.

As to `CC(C)Oc1ccccc1Oc1ccc(NC(=O)N2CCc3ccccc3CC2)cn1`, the melting point lay within 149 to 152 °C.
On to `Cn1ccc(NC(=O)Nc2cccc3c2C2CC4(CCN2C3=O)SCCS4)n1` (stereo not drawn), for which the melting point turned out to be 135 °C.
`CCOC(=O)c1cnc2cn[nH]c2c1Nc1cccs1` showed a melting point of 188 to 190 °C.
In turn, `O=C(O)c1ccc(C(=O)O)c(-c2nc3ccccc3s2)c1` came in with a melting point of 287 to 288 °C.
In turn, `O=C(c1ccc(-n2cccn2)cc1)N1Cc2cccn2Cc2ccccc21` returned a melting point of 179 to 181 °C.
The compound `N#Cc1cc(-c2ccoc2)c2ccc(OCc3cccc(-c4ccc(F)cc4)n3)cc2c1` displayed a melting point of 168 to 170 °C.
`O=C(O)COc1c(F)ccc(-c2c3ccccc3c(Br)c3sc4ccccc4c23)c1F`: the melting point lay within 195 to 197 °C.
Compound `O=C(Cn1c(-c2ccc(Cl)cc2)nc2cccnc21)Nc1nccs1` yielded a melting point above 260 °C.
`O=C1Nc2cc(Cl)cc(Cl)c2C1=O` had a melting point of 228 to 230 °C.
Next, `CCCc1cc(Cl)cc2nc(Cc3ccc(OC)c(OC4CCCC4)c3)oc12`: 54 to 55 °C; `Cc1cccc(-c2ccc3c(c2)c2c(n3Cc3ccc(C(C)(C)C)cc3)COC(=O)C2=O)c1`: 196 to 197 °C.
As for `CC(=O)NCCCC(=O)c1ccc(Cl)cc1CCC(=O)N1CCN(C)CC1`, the melting point is 126 to 128 °C.
For the compound `N#Cc1c2c(c3c(c1N1CCCCC1)Cc1ccccc1-3)-c1ccccc1C2`, the melting point lay in the range of 200 to 202 °C.
`O=C(NCCO)C(Oc1ccc(F)c(C(F)(F)F)c1)c1ccc(Cl)cc1` (stereo not drawn) registered a melting point of 95 °C.
`O=C1Nc2ccc(Cl)cc2C1(NCCc1ccccn1)c1ccccc1Cl` (stereo not drawn) yielded a melting point of 178 °C.
Compound `CCc1c(C(=O)O)oc2ccc(Br)cc12` showed a melting point of 240 to 242 °C.
`c1ccc(-c2nnc(Nc3ccc4c(c3)ncn4-c3ccccc3)c3ccccc23)cc1` showed a melting point of 227 to 229 °C.
The compound `O=C(O)c1cccc(C(=O)C=Cc2ccc(Cl)c(Cl)c2)c1O` returned a melting point above 250 °C.
In the case of `O=C(Nc1nc(C(Cl)(Cl)Cl)ns1)c1ccccc1Cl`, the melting point was 142 °C.
Compound `CC(=O)OC1O[C@H](CN=[N+]=[N-])[C@H](OC(C)=O)[C@H](OC(C)=O)[C@H]1OC(C)=O` (stereo partly drawn) gave a melting point of 89.9 to 90.3 °C.
The compound `Cc1ccc(-c2ccc(Cl)c(C(=O)NCC34CC5CC(CC(C5)C3)C4)c2)nc1C(=O)O` came in with a melting point of 180 to 185 °C.
In turn, `O=C(O)Cc1ccc(CO[N+](=O)[O-])cc1` registered a melting point of 109 to 110 °C.
For `CCC#COc1ccc(S(=O)(=O)NC(CSCc2ccccc2)C(=O)NO)cc1` (stereo not drawn), the melting point was 137 to 138 °C.
Take `CCc1[nH]nc(C(=O)NC2CCCC2)c1[N+](=O)[O-]`: the melting point lay in the range of 156 to 157 °C.
The compound `COc1ccccc1NC(=O)Nc1nc(Nc2ccccc2-c2ccccc2)nc(N(CCC(=O)O)Cc2cc(C(F)(F)F)cc(C(F)(F)F)c2)n1` returned a melting point of 132 to 135 °C.
Regarding `C#CCON=Cc1cc(Cl)ccc1OC(=O)NC`, the melting point lay in the range of 97 to 100 °C.
For `COC(=O)C(CCCCNC(=O)c1ccc(NC(=O)OCc2ccccc2)cc1)n1c2ccccc2c2ccccc21` (stereo not drawn) the value was 87 to 88 °C; for `c1ccc(C2(c3ccccc3)Oc3ccc(-c4nnn[nH]4)cc3O2)cc1`, 212 to 215 °C; for `COC1CCCN(Nc2nc(Cl)nc3c2ncn3C2OC(CCl)C(O)C2O)C1` (stereo not drawn), 200 to 202 °C.
For the compound `Cc1cc(C)c2c(c1)OC(C)(COc1ccc([N+](=O)[O-])cc1)CC2=O` (stereo not drawn), the melting point fell in the range of 86 to 88.5 °C.
Next, `Cc1cc(NCCO)c2[nH]nc(-c3ccc(Cl)cc3)c2n1`: 222 to 224 °C; `COc1ccc2[nH]c(C(=O)Nc3ccc(CCCN(C)Cc4ccc(OC)c(OC)c4)cc3)cc2c1`: 80 °C.
Turning to `O=C(NCCO)/C(=C/c1ccc(OC(F)F)cc1)NC(=O)c1ccc(OCCc2ccc(Cl)cc2)cc1`, the melting point lay in the range of 160 to 162 °C.
Compound `N#Cc1ncn2c(C(F)(F)F)cc(-c3cccc(C(F)(F)F)c3)nc12` returned a melting point of 202 °C.
Take `COc1cccc(-c2noc(-c3ccccn3)n2)c1`: the melting point was in the range of 90 to 94 °C.
`O=C(O)Cc1ccc(CCNS(=O)(=O)c2ccc(Cl)cc2)s1` came in with a melting point of 138 °C.
For `C=CCc1ccc2oc(CC)c(C)c2c1O` the value was 38 to 40 °C.
The compound `COc1cc(OC)nc(Oc2cccc3c2C(=O)OC3O)n1` (stereo not drawn) registered a melting point of 143 to 145 °C.
`COc1cccc2nc(-c3cc(C)c(OCCN4CCCC4)c(C)c3)[nH]c(=O)c12` showed a melting point of 157 to 158 °C.
Next, `Cc1cc(C(=O)O)c(C)c2c1SCCC2(C)C`: 166 to 167 °C; `COc1cc([N+](=O)[O-])c2nccc(C)c2c1OC`: 123 to 125 °C.
In turn, `CCN1CCN(c2ccc(Br)cc2)CC1` displayed a melting point of 112 °C.
Regarding `Cc1ccc(-c2ccc(S(=O)(=O)Nc3onc(C)c3Br)cc2)cc1`, the melting point was in the range of 153 to 156 °C.
In turn, `Cc1nsc(Cl)c1CS(=O)(=O)C1=NOC(C)(C)C1` returned a melting point of 113 to 114 °C.
For `CC12CCC3C(CC(O)C4CC(=O)CCC43C)C1CCC2O` (stereo not drawn) the value was 195 to 205 °C.
For `CC(=O)NC1CN(C)S(=O)(=O)c2sc(S(N)(=O)=O)cc21` (stereo not drawn) the value was 252 to 253 °C; for `COc1cc2c(cc1Nc1ncc(Cl)c(N[C@@H]3CCCC[C@H]3NS(C)(=O)=O)n1)CCN(CCS(C)(=O)=O)CC2`, 216 to 235 °C; for `COc1ccc2nc(-c3cc(C)c(OCCO)c(C)c3)n(-c3ccc(Br)cc3)c(=O)c2c1`, 160 to 162 °C.
`Fc1ccc2[nH]cc(CC3CCN(CCOc4ccc5c(c4)CCC5)CC3)c2c1` displayed a melting point of 150 to 152 °C.
In turn, `Cn1nc(-c2c(F)cccc2F)nc1-c1ccc(OCc2ccc(OC(F)(F)F)cc2)c(Cl)c1` showed a melting point of 132 to 136 °C.
On to `CCN(CC)CCNc1ccc(CN(C)S(=O)(=O)CC)c2sc3ccccc3c(=O)c12`, for which the melting point is 159 to 161 °C.
Compound `CNC(=O)c1cccc2cccc(C(=O)Nc3ccc(F)cc3C)c12` came in with a melting point of 249 °C.
Next, `O=C(CNc1cccc(F)c1)Nc1c(Cl)ccc2nc(N3CC[C@@H](O)C3)ccc12`: 218 to 220 °C.
For `CCNC(=O)N1CC(Oc2cccc(C(F)(F)F)c2)C1`, the melting point lay in the range of 125 to 126 °C.
In the case of `C(=C\c1ccc2oc3ccc(/C=C/c4ccccc4)cc3c2c1)/c1ccccc1`, the melting point was found to be 226 °C.
With `COc1cccc2c(C(F)(F)F)cc(N3CCNCC3)nc12`, the melting point came to 130 °C.
The compound `Clc1ccc2nncc(Cl)c2c1` gave a melting point of 111 to 113 °C.
`CCOc1ccc(C(C)=NOCCO)cc1`: the melting point was 51 to 54 °C.
In turn, `CCCCCCNC(=O)OCCCNC(=O)OC1CCN(C(=O)Oc2ccc(Oc3ccccc3)cc2)CC1` displayed a melting point of 90 to 92 °C.
For `CSC(=C[N+](=O)[O-])NCCSCc1nccs1` the value was 63 to 64 °C; for `CCC(=NO)c1nc(C)nc2c1c(C)c(C)n2-c1c(C)cc(C)cc1C`, 84 to 87 °C.
`CC1(C)NC(=O)N(c2ccc(F)cc2)C1=O` returned a melting point of 166 to 167 °C.
On to `CCCCc1nc(=O)c2cc(Br)c(F)cc2[nH]1`, for which the melting point worked out at 225 °C.
